{"source": "patent US20030083374A1", "about": "“NAALADase inhibitors useful as pharmaceutical compounds and compositions” (priority 1998, published 2003)", "key": {"[1]": {"system": "acetic acid (0.6%) induced writhing", "assay": "acetic acid model of pain (writhing)", "format": "in vivo, mice", "settings": "pretreated", "from_the_text": "One source of neuronal glutamate is thought to derive from the abundant neuropeptide NAAG which is hydrolyzed by NAALADase to liberate free glutamate. The inventors hypothesized that inhibition of NAALADase could limit pain by preventing this source of glutamate. To test this hypothesis, the inventors examined the possible antinocipetive effects of several NAALADase inhibitors in the formalin-, acetic acid- and chronic constrictive injury (CCI; “Bennett model”) models of pain. […] On day 7, 5% formalin was injected into the dorsum of the rat's hindpaw."}, "rat MCAO model of stroke": {"system": "rat MCAO model of stroke", "assay": "in vivo assay on brain injury following MCAO", "parameters": "species or system Sprague-Dawley rats", "protocol": "The control group received Hepes buffered saline.\nFour drug treated groups received Compound 1. For each rat, the treatment was initiated at 60 minutes post middle cerebral artery occlusion (MCAO) by an IV bolus injection which was immediately followed by IV infusion for 4 hours at rate of 0.5 ml/hr. Group 1 (n=9) received a dose of 100 mg/kg IV bolus followed by 20 mg/kg/hr IV infusion for 4 hours. Group 2 (n=11) received a dose of 30 mg/kg IV bolus followed by 6 mg/kg/hr IV infusion for 4 hours. Group 3 (n=9) received a dose of 10 mg/kg IV bolus followed by 2 mg/kg/hr IV infusion for 4 hours. Group 3 rats were also treated at 120 minutes, 180 minutes and 360 minutes post-occlusion. Group 4 (n=8) received a dose of 3 mg/kg IV bolus followed by […] IV infusion for 4 hours.\nTwo additional drug treated groups received 2-(3-sulfanylpropyl)pentanedioic acid. For each rat, the treatment was initiated at 120 minutes post middle cerebral artery occlusion (MCAO) by an IV bolus injection which was immediately followed by IV infusion for 4 hours at rate of 0.5 ml/hr. Group 5 received a dose of 30 mg/kg IV bolus followed by 6 mg/kg/hr IV infusion for 4 hours. Group 6 received a dose of 10 mg/kg IV bolus followed by 2 mg/kg/hr IV infusion.\nTwenty two hours following the reperfusion, the rats were euthanized and their brains were removed. Seven coronal sections (2 mm thick) were taken and stained with 1% solution of 2,3,5-triphenyl-tetraxolium chloride (TTC) for 20 minutes and then fixed in 10% formalin. The anterior and posterior surface of the most rostral brain section and the posterior surface of each of the remaining 6 sections were imaged. The quantification of infarct size of each brain was obtained using a computer aided-digital imaging analysis system (LOATS). The brain regions completely lacking TTC-staining were characterized as representative of infarcted tissue. The total infarct volume for each rat was calculated by numeric integration of the respective sequential brain areas.\nMale Sprague-Dawley rats (260-320 g) were used. They were individually housed and allowed free access to food and water. Two days prior to the experiment, they were given restricted food if necessary to maintain the body weight Each rat received two surgeries: femoral vein cannulation for IV infusion and MCAO. During surgeries, the rat was anesthetized with 1.5% halothane delivered in oxygen via an inhalation mask. The body temperature was monitored and regulated at normothermic level using a homeothermic heating system. First, a catheter was inserted into the left femoral vein. Thirty minutes later, the rat was reanesthetized for MCAO surgery. The MCAO was achieved using the endovascular suture method described by Long et al., Stroke, Vol. 20, pp. 84-91 (1989). Specifically, the right external carotid artery (ECA) was exposed, coagulated and transected. A 3-0 monofilament nylon suture with a blunted tip and a coat of 0.05% Poly-1-Lysine was introduced into the proximal stump of the ECA via an arteriotomy. It was advanced 22 mm from the carotid bifurcation until it lodged in the proximal region of the anterior cerebral artery, thereby occluding the origin of the MCA. The rats were allowed to wake up; 2 hours later, the rats were reanesthetized for reperfusion, during which the nylon suture was retracted to the stump of the ECA allowing blood recirculation to the MCA."}}, "data": [{"smiles": "O=C(O)CCC(CCS)C(=O)O", "note": "(stereo not drawn) [Compound 1, 2-(2-sulfanylethyl)pentanedioic acid]", "values": [{"measurement": "acetic acid (0.6%) induced writhing vs. vehicle control", "setting": "[1]", "value": "significantly attenuated"}, {"measurement": "mean total brain infarct volume", "setting": "rat MCAO model of stroke; Group 1: 100 mg/kg IV bolus + 20 mg/kg/hr IV infusion 4 hours, 60 minutes post MCAO", "value": "123±31", "unit": "mm^3"}, {"measurement": "mean total brain infarct volume", "setting": "rat MCAO model of stroke; Group 2: 30 mg/kg IV bolus + 6 mg/kg/hr IV infusion 4 hours, 60 minutes post MCAO", "value": "141±78", "unit": "mm^3"}, {"measurement": "mean total brain infarct volume", "setting": "rat MCAO model of stroke; Group 3: 10 mg/kg IV bolus + 2 mg/kg/hr IV infusion 4 hours, treated at 60 minutes post-occlusion", "value": "152±32", "unit": "mm^3"}, {"measurement": "mean total brain infarct volume", "setting": "rat MCAO model of stroke; Group 4: 3 mg/kg IV bolus + 3 mg/kg/hr IV infusion 4 hours, 60 minutes post MCAO", "value": "117±22", "unit": "mm^3"}, {"measurement": "neuroprotection in rat MCAO model of stroke", "setting": "rat MCAO model of stroke; administered 60, 120, 180 and 360 minutes post-occlusion", "value": "neuroprotective"}, {"measurement": "% Protect", "setting": "rat MCAO model of stroke; dose 1 mg/kg, 60 minutes post MCAO", "value": 20, "unit": "%"}, {"measurement": "% Protect", "setting": "rat MCAO model of stroke; dose 3 mg/kg, 60 minutes post MCAO", "value": 52, "unit": "%"}, {"measurement": "% Protect", "setting": "rat MCAO model of stroke; dose 10 mg/kg, 60 minutes post MCAO", "value": 50, "unit": "%"}, {"measurement": "% Protect", "setting": "rat MCAO model of stroke; dose 10 mg/kg, 120 minutes post MCAO", "value": 33, "unit": "%"}, {"measurement": "% Protect", "setting": "rat MCAO model of stroke; dose 10 mg/kg, 180 minutes post MCAO", "value": 47, "unit": "%"}, {"measurement": "% Protect", "setting": "rat MCAO model of stroke; dose 10 mg/kg, 360 minutes post MCAO", "value": 50, "unit": "%"}, {"measurement": "% Protect", "setting": "rat MCAO model of stroke; dose 30 mg/kg, 60 minutes post MCAO", "value": 52, "unit": "%"}, {"measurement": "% Protect", "setting": "rat MCAO model of stroke; dose 100 mg/kg IV bolus, 60 minutes post MCAO", "value": 44, "unit": "%"}, {"measurement": "infarct size vs. vehicle treated rats", "setting": "rat MCAO model of stroke; four Compound 1 treated groups", "value": "significantly smaller infarct size"}]}]}
